Measurements taken from US5563125A, “5'-deoxy-5'-(substituted)alkylthioribose compounds and their pharmaceutical compositions” (priority 1992, dated 1996).

Assays:
[1] = test system: T. b. brucei procyclic trypanosomes (Lab 110 EATRO strain); assay: In vitro antitrypanosomal activity, procyclic trypanosomes in T2 medium; format: cell-based, Trypanosoma brucei brucei; conditions: Trypanosoma brucei, 3-5 days
Protocol: The antitrypanosomal effects of HETA and other nucleosides were examined in the Lab 110 EATRO strain of T. b. brucei in culture.
Cells were cultured as described in Bacchi et al. Exp. Parasitol. 68, 392, 1989. Cells were then grown in the presence of the compounds for 3-5 days. Drugs were filtered, sterilized and added aseptically. Control cells achieved a maximum density of 1.5-3.5×10^7 /ml. Hemocytometer counts were made daily and the results were expressed as a percent of control growth. IC50 plots were obtained by graphing log (drug) vs. percent growth inhibition.
Trypanocidal Activity of MTA and MTR Analogs
against T. b. brucei procyclic trypanosomes in T2 medium.

[2] = target: T1, T. b. brucei MTA phosphorylase (Trypanosoma brucei, UniProt Q57XS4); assay: T. b. brucei MTA phosphorylase substrate assay; format: biochemical; conditions: relative to MTA
T1 construct: MTA or analogs as substrates
T1 sequence (Q57XS4 entry or part of it): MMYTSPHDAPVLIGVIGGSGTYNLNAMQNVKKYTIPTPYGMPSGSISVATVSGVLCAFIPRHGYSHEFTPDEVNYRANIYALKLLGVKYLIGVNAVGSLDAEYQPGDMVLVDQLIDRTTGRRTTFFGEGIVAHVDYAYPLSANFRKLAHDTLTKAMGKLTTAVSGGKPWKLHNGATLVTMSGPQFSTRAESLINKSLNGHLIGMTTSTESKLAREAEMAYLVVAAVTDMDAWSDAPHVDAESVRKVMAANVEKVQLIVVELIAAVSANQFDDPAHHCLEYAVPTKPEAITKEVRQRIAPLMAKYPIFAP
Protocol: ^a MTA phosphorylase was assayed according to Ghoda et al., using 200
μM MTA (saturating) or analogs as substrates. Specific activities of
the dialyzed enzyme preparations were with 50 mM PO4, 104.97 n
moles/mg protein/h; without PO4, 28.27 n moles/mg protein/h. Results
are expressed as percent activity compared to as substrate with and
without PO4, respectively.

[3] = target: T2, Mouse Liver MTA Phosphorylase (Mus musculus, UniProt Q9CQ65); assay: Mouse liver MTA phosphorylase substrate/inhibitor assay; format: biochemical; conditions: substrate activity relative to MTA
T2 sequence (Q9CQ65 1-283): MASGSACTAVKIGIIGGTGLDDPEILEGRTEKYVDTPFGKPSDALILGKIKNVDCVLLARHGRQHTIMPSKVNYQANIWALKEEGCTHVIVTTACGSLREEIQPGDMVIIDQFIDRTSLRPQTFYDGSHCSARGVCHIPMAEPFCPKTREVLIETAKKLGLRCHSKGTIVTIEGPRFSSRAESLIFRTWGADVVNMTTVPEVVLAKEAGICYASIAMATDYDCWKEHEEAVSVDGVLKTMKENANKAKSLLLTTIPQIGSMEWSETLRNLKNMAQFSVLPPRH
Protocol: ^a MTA phosphorylase activity was assayed as described in Sufrin et

[4] = test system: L1210 cells (MTA phosphorylase-deficient); assay: Growth inhibition of L1210 cells; format: cell-based, mouse; conditions: Mus musculus, L1210, 48 h
Protocol: (§1) L1210, L5178Y and MOLT-4 cell lines were grown in RPMI 1640 and 10% Nu Serum (Collaborative Research Inc., Lexington, Mass.) and CCRF-CEM cells were grown in 10% Horse Serum (Gibco Laboratories, Grand Island, N.Y.) and maintained as previously described for suspension cultures by Pera et al. in Cancer Res. 46, 1148, 1986. Cell cultures (0.3×10^5 cells/ml) were treated with each compound at 0.1 to 1000 μM to determine the concentration that inhibited growth by 50% (IC50) at 48 hr for the L1210 and L5178Y cells and at 96 hr for the CCRF-CEM and MOLT-4 cells. The incubation times allowed approximately 4 cell doublings in each cell line. All compounds were freshly prepared prior to treatment by dissolving in DMSO and diluting in serum-free media. Cells were counted by electron particle counting (Model XF' Coulter Counter; Coulter Electronics, Hialeah, Fla.).
(§2) For each compound, the concentrations required to inhibit cell growth by 50% (IC50 values) are shown in Table 7 for two murine leukemic cell lines, L1210 and L5178Y [MTA phosphorylase-deficient and MTA phosphorylase-containing, respectively] and two human leukemic cell lines, CCRF-CEM and MOLT-4 [MTA phosphorylase-deficient and MTA phosphorylase-containing, respectively]. ETA, MFETA, HETA and PTA had lower IC50 values in the L5178Y cells than in the L1210 cells. […] This differential is consistent with the possibility that, in L5178Y cells, MFETA is cleaved by MTA phosphorylase to the growth inhibitory metabolite, 5-monofluoroethylthioribose-1-phosphate (MFETR-1-P).

[5] = test system: L5178Y cells (MTA phosphorylase-containing); assay: Growth inhibition of L5178Y cells; format: cell-based, mouse; conditions: Mus musculus, 48 h
Protocol: as §1, §2

[6] = test system: CCRF-CEM cells (MTA phosphorylase-deficient); assay: Growth inhibition of CCRF-CEM cells; format: cell-based, human; conditions: Homo sapiens, 96 h
Protocol: as §1, §2

[7] = test system: MOLT-4 cells (MTA phosphorylase-containing); assay: Growth inhibition of MOLT-4 cells; format: cell-based, human; conditions: Homo sapiens, MOLT-4, 96 h
Protocol: as §1, §2

[8] = test system: T. b. brucei LAB 110 EATRO; assay: In vivo antitrypanosomal activity, LAB EATRO mouse infection model; conditions: 7 days, miniosmotic pump
Protocol: ^a Animals were treated with surgically implanted miniosmotic pumps
loaded as per manufacturers instructions with MTA, HETA or MFETA suspende

For `Nc1ncnc2c1ncn2[C@@H]1O[C@H](CSCCCO)[C@@H](O)[C@H]1O` [HPTA], the IC50 [1] was 170 µM, the “Percent Control Activity” value ([2]; +50 mM PO4, 200 μM substrate) was 72.5% and the “Percent Control Activity” value ([2]; No PO4, 200 μM substrate) was 101.8%.
`Nc1ncnc2c1ncn2[C@@H]1O[C@H](CSCCCF)[C@@H](O)[C@H]1O` [MFPTA, reference compound] was tested, and the IC50 [1] was 120 µM, the “Substrate (% Control)” value [3] was 66 % Control and the “Percent Control Activity” value ([2]; +50 mM PO4, 200 μM substrate) was 47.5%. The “Percent Control Activity” value ([2]; No PO4, 200 μM substrate) was 116.4%, the IC50 [4] was 600 µM and the IC50 [5] was 600 µM. It also gave an IC50 [6] of 160 µM and an IC50 [7] of 25 µM.
`CSC[C@H]1O[C@@H](n2cnc3c(N)ncnc32)[C@H](O)[C@@H]1O` [MTA, 5'-deoxy-5'-methylthioadenosine, reference compound] was tested, and the “% Cured” value ([8]; 25 mg/kg/day) was 0%, the “MSD (mean survival in days of animals dying of infection)” value (“MSD” for short) ([8]; 25 mg/kg/day) was 5.0 days and the “Number Cured Total” value ([8]; 25 mg/kg/day) was 0/5. For the same compound, the “% Cured” value ([8]; 50 mg/kg/day) was 0%, the “MSD” value ([8]; 50 mg/kg/day) was 5.0 days and the “Number Cured Total” value ([8]; 50 mg/kg/day) was 0/5. For the same compound, the “% Cured” value ([8]; 100 mg/kg/day) was 0%, the “MSD” value ([8]; 100 mg/kg/day) was 5.0 days and the “Number Cured Total” value ([8]; 100 mg/kg/day) was 0/5. The “Substrate (% Control)” value [3] was 100 % Control, the “Percent Control Activity” value ([2]; +50 mM PO4, 200 μM substrate) was 100% and the “Percent Control Activity” value ([2]; No PO4, 200 μM substrate) was 100%. For the same compound, the IC50 [4] was 850 ± 120 µM, the IC50 [5] was 200 ± 45 µM and the IC50 [6] was 150 ± 60 µM. It also gave an IC50 [7] of 11 ± 7 µM.
For `N=C(N)c1ccc(OCCCCCOc2ccc(C(=N)N)cc2)cc1` [PENTAMIDINE], the IC50 [1] was 0.2 µM.
In the case of `CCCSC[C@H]1O[C@@H](n2cnc3c(N)ncnc32)[C@H](O)[C@@H]1O` [PTA, reference compound], the IC50 [1] is reported as 46 µM, the “Substrate (% Control)” value [3] is reported as 102 % Control and the “Percent Control Activity” value ([2]; +50 mM PO4, 200 μM substrate) is reported as 57.5%. The “Percent Control Activity” value ([2]; No PO4, 200 μM substrate) was 96.4%, the IC50 [4] was 1000 µM and the IC50 [5] was 500 µM. The IC50 [6] was 160 µM and the IC50 [7] was 45 µM.
